Data published in US8119661B2, “Piperidine derivatives and their use as muscarinic receptor modulators” (AstraZeneca AB, priority 2007, dated 2012).

What was measured:
[1] = biological target: T1, hM3 (human Muscarinic receptor subtype 3) (Homo sapiens, UniProt P20309); assay: Human M3 calcium mobilization FLIPR assay; type: cell-based; settings: CHO cells expressing hM3, intracellular Ca2+ release
T1 construct: expressed in transfected cells; host or cells: CHO cells (Chinese hamster ovary cells, ATCC)
Method: The compound activity in the present invention (EC50 or IC50) is measured using a 384 plate-based imaging assay that monitors drug induced intracellular Ca^2+ release in whole cells. Activation of hM1 (human Muscarinic receptor subtype 1, gene bank access NM_000738), rM1 (rat Muscarinic receptor subtype 1, gene bank access NM_080773), hM3 (human Muscarinic receptor subtype 3, gene bank access NM_000740NM_000740) and hM5 (human Muscarinic receptor subtype 5, gene bank access NM_0121258), receptors expressed in CHO cells (Chinese hamster ovary cells, ATCC) is quantified in a Molecular Devices FLIPR II™ instrument as an increase in fluorescent signal. Inhibition of hM3 and hM5 by compounds is determined by the decrease in fluorescent signal in response to 2 nM acetylcholine activation.
Prior to experiment, the cell culture medium is removed from the plates by inversion. […] Plates are incubated at 37° C. for 60 minutes prior to start the experiment. The incubation is terminated by washing the cells four times in assay buffer, leaving a residual 25 μl buffer per well. Cell plates are then transferred to the FLIPR, ready for compound additions.
The day of experiment, acetylcholine and compounds are diluted in assay buffer in three-fold concentration range (10 points serial dilution) for addition by FLIPR instrument. For all calcium assays, a baseline reading is taken for 10 seconds followed by the addition of 12.5 μl of compounds, resulting in a total well volume of 37.5 μl. Data is collected every second for 60 pictures and then every 6 seconds for 20 pictures prior to the addition of agonist. For hM3 and hM5, before agonist addition, a second baseline reading is taken for 10 seconds followed by the addition of 12.5 μl of agonist or buffer, producing a final volume of 50 μl. After agonist stimulation, the FLIPR continues to collect data every second for 60 pictures and then every 6 seconds for 20 pictures. The fluorescence emission is read using filter 1 (emission 510-570 nm) by the FLIPR on board CCD camera.
Calcium mobilization output data are calculated as the maximal relative fluorescence unit (RFU) minus the minimal value for both compound and agonist reading frame (except for hM1 and rM1 using only the maximal RFU). Data are analyzed using sigmoidal fits of a non-linear curve-fitting program (XLfit version 4.2.2 Excel add-in version 4.2.2 build 18 math 1Q version 2.1.2 build 18). All pEC50 and pIC50 values are reported as arithmetic means±standard error of mean of ‘n’ independent experiments.

[2] = biological target: T2, cloned human M2 receptor (Homo sapiens, UniProt P08172); assay: hM2 receptor GTPγS binding; type: biochemical; settings: CHO membranes expressing hM2, [35S]GTPγS binding
T2 construct: purchased Perkin-Elmer RBHM2M; host or cells: CHO cell membranes
T2 sequence (P08172 1-466): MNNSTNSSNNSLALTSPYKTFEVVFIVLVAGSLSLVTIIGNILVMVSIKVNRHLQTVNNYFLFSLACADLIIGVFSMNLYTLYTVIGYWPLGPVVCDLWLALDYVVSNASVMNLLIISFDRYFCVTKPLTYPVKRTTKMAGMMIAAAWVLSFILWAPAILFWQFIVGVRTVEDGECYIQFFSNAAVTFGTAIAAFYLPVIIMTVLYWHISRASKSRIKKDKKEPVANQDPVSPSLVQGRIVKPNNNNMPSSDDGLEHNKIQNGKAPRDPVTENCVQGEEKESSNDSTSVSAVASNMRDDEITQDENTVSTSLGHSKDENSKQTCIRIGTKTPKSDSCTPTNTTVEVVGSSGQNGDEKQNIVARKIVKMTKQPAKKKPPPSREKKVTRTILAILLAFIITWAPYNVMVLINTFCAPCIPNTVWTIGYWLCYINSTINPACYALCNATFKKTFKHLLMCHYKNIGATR
Method: Membranes produced from Chinese hamster ovary cells (CHO) expressing the cloned human M2 receptor (human Muscarinic receptor subtype 2, gene bank access NM_000739), are obtained from Perkin-Elmer (RBHM2M). The membranes are thawed at 37° C., passed 3 times through a 23-gauge blunt-end needle, diluted in the GTPγS binding buffer (50 mM Hepes, 20 mM NaOH, 100 mM NaCl, 1 mM EDTA, 5 mM MgCl2, pH 7.4, 100 μM DTT). The EC50, IC50 and Emax of the compounds of the invention are evaluated from 10-point dose-response curves (three fold concentration range) done in 60 μl in 384-well non-specific binding surface plate (Corning). Ten microliters from the dose-response curves plate (5× concentration) are transferred to another 384 well plate containing 25 μl of the following: 5 μg of hM2 membranes, 500 μg of Flashblue beads (Perkin-Elmer) and GDP 25 μM. An additional 15 μl containing 3.3× (60,000 dpm) of GTPγ^35S (0.4 nM final) are added to the wells resulting in a total well volume of 50 μl. Basal and maximal stimulated [^35S]GTPγS binding are determined in absence and presence of 30 μM final of acetylcholine agonist. The membranes/beads mix are pre-incubated for 15 minutes at room temperature with 25 μM GDP prior to distribution in plates (12.5 μM final). The reversal of acetylcholine-induced stimulation (2 μM final) of [^35S]GTPγS binding is used to assay the antagonist properties (IC50) of the compounds. The plates are incubated for 60 minutes at room temperature then centrifuged at 400 rpm for 5 minutes. The radioactivity (cpm) is counted in a Trilux (Perkin-Elmer).
Values of EC50, IC50 and Emax are obtained using sigmoidal fits of a non-linear curve-fitting program (XLfit version 4.2.2 Excel add-in version 4.2.2 build 18 math 1Q version 2.1.2 build 18) of percent stimulated [^35S]GTPγS binding vs. log(molar ligand). All pEC50 and pIC50 values are reported as arithmetic means±standard error of mean of ‘n’ independent experiments.

T1 sequence (P20309 whole entry): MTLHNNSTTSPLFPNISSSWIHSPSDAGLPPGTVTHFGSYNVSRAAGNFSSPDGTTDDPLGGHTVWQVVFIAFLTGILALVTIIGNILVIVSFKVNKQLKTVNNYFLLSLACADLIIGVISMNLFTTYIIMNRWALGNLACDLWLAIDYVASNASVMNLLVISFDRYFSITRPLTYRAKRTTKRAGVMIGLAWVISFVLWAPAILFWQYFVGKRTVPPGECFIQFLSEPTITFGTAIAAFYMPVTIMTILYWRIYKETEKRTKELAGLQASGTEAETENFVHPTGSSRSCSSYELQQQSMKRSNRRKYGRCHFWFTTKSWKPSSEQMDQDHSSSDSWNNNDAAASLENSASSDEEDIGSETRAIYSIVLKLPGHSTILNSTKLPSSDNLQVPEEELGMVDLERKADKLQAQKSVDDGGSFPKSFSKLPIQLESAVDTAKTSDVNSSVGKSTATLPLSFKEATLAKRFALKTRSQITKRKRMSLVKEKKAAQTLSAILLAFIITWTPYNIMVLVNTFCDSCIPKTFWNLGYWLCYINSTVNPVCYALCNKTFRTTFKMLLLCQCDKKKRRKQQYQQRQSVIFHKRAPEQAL

Row | EC50 [1] [µM] | EC50 [2] [nM] | SMILES
1 | > 40 | > 15000 | CC1(N2CCC(N3C(=O)C[C@H]4CCCC[C@@H]43)CC2)CCN(C(=O)C2CC2)CC1 [Example 15, (3aR,7aS)-1-[1-[1-(cyclopropanecarbonyl)-4-methyl-4-piperidyl]-4-piperidyl]-3a,4,5,6,7,7a-hexahydro-3H-indol-2-one]
2 | > 40 | 121 | CC#CCOC(=O)N1CCC(C)(N2CCC(N3C(=O)N[C@H]4CCCC[C@@H]43)CC2)CC1 [Example 16, But-2-ynyl 4-[4-[(3aS,7aS)-2-oxo-3a,4,5,6,7,7a-hexahydro-3H-benzimidazol-1-yl]-1-piperidyl]-4-methyl-piperidine-1-carboxylate]
3 | > 40 | 2340 | CCC(=O)N1CCC(C)(N2CCC(N3C(=O)N[C@H]4CCCC[C@@H]43)CC2)CC1 [Example 18, (3aS,7aS)-3-[1-(4-methyl-1-propanoyl-4-piperidyl)-4-piperidyl]-3a,4,5,6,7,7a-hexahydro-1H-benzimidazol-2-one]
